Measured values as given in patent US20260262643A1, “HERBICIDAL BENZOXAZINES” (FMC CORPORATION, priority 2022, published 2026).

Key:
ryegrass, Italian [1] = experiment: Test C preemergence; assay type: in vivo, Lolium multiflorum; details: Preemergence, 1000 g ai/ha; visual rating after 10 days, 0 to 100 scale (0 no effect, 100 complete control)
Text: (§1) Seeds of plant species selected from barnyardgrass (Echinochloa crusgalli), blackgrass (Alopecurus myosuroides), corn (Zea mays), foxtail, giant (giant foxtail, Setaria faberi), green foxtail (Setaria viridis), goosegrass (Eleusine indica), kochia (Bassia scoparia), oat, wild (wild oat, Avena fatua), pigweed, palmer (palmer amaranth, palmer pigweed, Amaranthus palmeri), Pigweed, Redroot (redroot pigweed, Amaranthus retroflexus), ragweed (common ragweed, Ambrosia artemisiifolia), ryegrass, Italian ([…] ryegrass, Lolium multiflorum), soybean (Glycine max), and wheat (Triticum aestivum) were planted into a blend of loam soil and sand and treated preemergence with a directed soil spray using test chemicals formulated in a non-phytotoxic solvent mixture which included a surfactant. At the same time, plants selected from these crops and weed species and also galium (catchweed bedstraw, Galium aparine) and horseweed (Erigeron canadensis) were planted in pots containing the same blend of loam soil and sand and treated with postemergence applications of test chemicals formulated in the same manner. Plants ranged in height from 2 to 10 cm and were in the one- to two-leaf stage for the postemergence treatment. Treated plants and untreated controls were maintained in a greenhouse for 10 days, after which time all treated plants were compared to untreated controls and visually evaluated for injury. Plant response ratings, summarized in Table C, are based on a 0 to 100 scale where 0 is no effect and 100 is complete control. A dash (-) response means no test result.

horseweed = experiment: Test C postemergence; assay type: in vivo, Erigeron canadensis; details: Postemergence, 1000 g ai/ha
Text: as §1

pigweed, palmer [2] = experiment: Test C preemergence; assay type: in vivo, Amaranthus palmeri; details: Preemergence, 1000 g ai/ha; visual rating after 10 days, 0 to 100 scale (0 no effect, 100 complete control)
Text: as §1

barnyardgrass [3] = experiment: Test C preemergence; assay type: in vivo, Echinochloa crusgalli; details: Preemergence, 1000 g ai/ha; visual rating after 10 days, 0 to 100 scale (0 no effect, 100 complete control)
Text: as §1

blackgrass [4] = experiment: Test C preemergence; assay type: in vivo, Alopecurus myosuroides; details: Preemergence, 1000 g ai/ha; visual rating after 10 days, 0 to 100 scale (0 no effect, 100 complete control)
Text: as §1

green foxtail [5] = experiment: Test C postemergence; assay type: in vivo, Setaria viridis; details: Postemergence, 1000 g ai/ha
Text: as §1

blackgrass [6] = experiment: Test C postemergence; assay type: in vivo, Alopecurus myosuroides; details: Postemergence, 1000 g ai/ha
Text: as §1

ragweed [7] = experiment: Test C preemergence; assay type: in vivo, Ambrosia artemisiifolia; details: Preemergence, 1000 g ai/ha; visual rating after 10 days, 0 to 100 scale (0 no effect, 100 complete control)
Text: as §1

ragweed [8] = experiment: Test C postemergence; assay type: in vivo, Ambrosia artemisiifolia; details: Postemergence, 1000 g ai/ha
Text: as §1

galium = experiment: Test C postemergence; assay type: in vivo, Galium aparine; details: Postemergence, 1000 g ai/ha
Text: as §1

barnyardgrass [9] = experiment: Test C postemergence; assay type: in vivo, Echinochloa crusgalli; details: Postemergence, 1000 g ai/ha
Text: as §1

kochia [10] = experiment: Test C postemergence; assay type: in vivo, Bassia scoparia; details: Postemergence, 1000 g ai/ha
Text: as §1

pigweed, palmer [11] = experiment: Test C postemergence; assay type: in vivo, Amaranthus palmeri; details: Postemergence, 1000 g ai/ha
Text: as §1

ryegrass, Italian [12] = experiment: Test C postemergence; assay type: in vivo, Lolium multiflorum; details: Postemergence, 1000 g ai/ha
Text: as §1

green foxtail [13] = experiment: Test C preemergence; assay type: in vivo, Setaria viridis; details: Preemergence, 1000 g ai/ha; visual rating after 10 days, 0 to 100 scale (0 no effect, 100 complete control)
Text: as §1

kochia [14] = experiment: Test C preemergence; assay type: in vivo, Bassia scoparia; details: Preemergence, 1000 g ai/ha; visual rating after 10 days, 0 to 100 scale (0 no effect, 100 complete control)
Text: as §1

[15] = 10 days, visual 0 to 100 scale (0 no effect, 100 complete control)
[16] = 0 to 100 scale, 0 no effect, 100 complete control

Row | Structure (SMILES) | Plant response rating, Ryegrass, Italian (ryegrass, Italian [1]) | Plant response rating, Horseweed (horseweed; [15]) | Plant response rating, Pigweed, Palmer (pigweed, palmer [2]) | Plant response rating, Barnyardgrass (barnyardgrass [3]) | Plant response rating, Blackgrass (blackgrass [4]) | Plant response rating, Foxtail, Green (green foxtail [5]; [15]) | Plant response rating, Blackgrass (blackgrass [6]; [15]) | Plant response rating, Ragweed (ragweed [7]) | Plant response rating, Ragweed (ragweed [8]; [15]) | Plant response rating, Galium (galium; [15]) | Plant response rating, Barnyardgrass (barnyardgrass [9]; [16]) | Plant response rating, Kochia (kochia [10]; [15]) | Plant response rating, Pigweed, Palmer (pigweed, palmer [11]; [15]) | Plant response rating, Ryegrass, Italian (ryegrass, Italian [12]; [15]) | Plant response rating, Foxtail, Green (green foxtail [13]) | Plant response rating, Kochia (kochia [14]) | Plant response rating, Barnyardgrass (barnyardgrass [9]; [15]) | other results
1 | C[C@H]1CN(C(=O)c2cccc(-c3ccn(C)n3)c2)c2cccc(Cl)c2O1 [Compound 205] | 40 | 0 | 60 | 0 | 0 | 30 | 30 | 0 | 20 | 0 | 10 | 50 | 30 | 40 | 40 | 50 | – | –
2 | Cc1nsc(-c2cccc(C(=O)N3C[C@H](C)Oc4c(Cl)cccc43)c2)n1 [Compound 390] | 80 | 0 | 90 | 80 | 20 | 20 | 50 | 30 | 30 | 80 | – | 70 | 80 | 20 | 100 | 50 | 50 | –
3 | C[C@H]1CN(C(=O)c2cccc(-c3cn(C)cn3)c2)c2cccc(Cl)c2O1 [Compound 293] | 0 | 30 | 10 | 0 | 0 | 0 | 0 | 0 | 0 | 0 | – | 0 | 10 | 0 | 0 | 0 | 0 | –
4 | Cc1cccc2c1O[C@@H](C)CN2C(=O)c1cccc(-n2cncc2C#N)c1 [Compound 309] | 70 | 30 | 70 | 0 | 20 | 10 | 0 | 0 | 30 | 70 | – | 40 | 70 | 10 | 90 | 10 | 10 | –
5 | Cc1ccc(-c2cccc(C(=O)N3C[C@H](C)Oc4c(C)cccc43)c2)nn1 [Compound 160] | 40 | – | 20 | 30 | 0 | – | – | 0 | – | – | 10 | – | – | – | 30 | 70 | – | Plant response rating, Horseweed (horseweed; [16]): 0; Plant response rating, Foxtail, Green (green foxtail [5]; [16]): 40; Plant response rating, Blackgrass (blackgrass [6]; [16]): 20; Plant response rating, Ragweed (ragweed [8]; [16]): 0; Plant response rating, Galium (galium; [16]): 50; Plant response rating, Kochia (kochia [10]; [16]): 70; Plant response rating, Pigweed, Palmer (pigweed, palmer [11]; [16]): 0; Plant response rating, Ryegrass, Italian (ryegrass, Italian [12]; [16]): 0
6 | Cc1cnc(-c2cccc(C(=O)N3C[C@H](C)Oc4c(C)cccc43)c2)s1 [Compound 243] | 70 | 40 | 0 | 60 | 0 | 0 | 0 | 30 | 0 | 60 | 10 | 10 | 60 | 50 | 70 | 0 | – | –
7 | Cc1ncc(-c2cccc(C(=O)N3C[C@H](C)Oc4c(C)cccc43)c2)cn1 [Compound 161] | 80 | – | 0 | 50 | 0 | – | – | 80 | – | – | 10 | – | – | – | 70 | 30 | – | Plant response rating, Horseweed (horseweed; [16]): 10; Plant response rating, Foxtail, Green (green foxtail [5]; [16]): 10; Plant response rating, Blackgrass (blackgrass [6]; [16]): 50; Plant response rating, Ragweed (ragweed [8]; [16]): 50; Plant response rating, Galium (galium; [16]): 50; Plant response rating, Kochia (kochia [10]; [16]): 30; Plant response rating, Pigweed, Palmer (pigweed, palmer [11]; [16]): 0; Plant response rating, Ryegrass, Italian (ryegrass, Italian [12]; [16]): 20
8 | COc1ccc(-c2cccc(C(=O)N3C[C@H](C)Oc4c(Cl)cccc43)c2)cn1 [Compound 385] | 50 | 0 | 50 | 30 | 0 | 20 | 30 | 0 | 50 | 60 | – | 70 | 70 | 10 | 90 | 0 | 20 | –
